Literature values in publication doi:10.1101/2023.04.03.535218, “Distributable, Metabolic PET Reporting of Tuberculosis” (bioRxiv, 2023).

Target: T1, OtsA^Sf (Escherichia coli, UniProt P31677)
T1 construct: C-terminally tagged, purified on Ni-NTA
T1 sequence (P31677 2-474): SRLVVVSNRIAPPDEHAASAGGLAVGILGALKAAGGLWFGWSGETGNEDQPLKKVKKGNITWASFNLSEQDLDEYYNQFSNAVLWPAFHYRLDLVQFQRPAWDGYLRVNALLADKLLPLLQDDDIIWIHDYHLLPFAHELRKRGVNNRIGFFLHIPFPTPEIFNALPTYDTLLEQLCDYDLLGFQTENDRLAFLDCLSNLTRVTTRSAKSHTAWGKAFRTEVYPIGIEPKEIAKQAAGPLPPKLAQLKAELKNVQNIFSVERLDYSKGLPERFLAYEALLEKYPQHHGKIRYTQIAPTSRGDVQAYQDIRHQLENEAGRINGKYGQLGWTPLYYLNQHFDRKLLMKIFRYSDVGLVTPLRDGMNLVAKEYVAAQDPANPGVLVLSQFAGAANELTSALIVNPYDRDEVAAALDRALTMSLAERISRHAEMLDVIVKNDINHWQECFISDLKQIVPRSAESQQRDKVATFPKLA
Assay: NADH-linked continuous assay (Methods)
Type: biochemical
Conditions: co-substrate UDP-Glc; table note a (taken from Reference 41) is also set on this row, text presents it as own

In the case of `O=P(O)(O)OC[C@H]1OC(O)[C@H](O)[C@@H](O)[C@@H]1O` (stereo partly shown) [G6P], the Km is given as 4.9 ± 0.5 mM.
